Experimental data reported in US20090029855A1, “Quinoline Derivatives and Their Use as Pesticides” (priority 2006, published 2009).

What was measured:
Type in all cases: in vivo
[1] = system: House Fly (Musca domestica); test: House fly glass vial (glass contact) assay
Experimental: (§1) Glass vials (20 ml scintillation vials) were treated with 0.44 ml of a solution of active ingredient in acetone. Each vial was rolled uncapped for ca. 10 minutes to allow the active ingredient to completely coat the vial and to allow for full drying of the acetone. Six insects or ticks were placed into each vial, with 5 vials per treatment rate. The vials are kept at 22° C. and are observed for treatment effects at various time intervals.

[2] = system: Yellowfever Mosquitos (Aedes Aegypti), 4th instar larvae; test: Activity against yellowfever mosquitos via water treatment
Experimental: The test compound (1 Vol % in acetone) was applied to 9 ml distilled water In polystyrene plastic 6-well plates. Treatment rates were applied 1 and 10 ppm. Ten, 4th instar yellowfever mosquito larvae, Aedes aegypti, were added to each well in 1 ml of distilled water. The test dishes were maintained at 22° C. and observed daily for mortality, up to 5 days after treatment. Each treatment was replicated in 6 wells.

[3] = system: Subterranean Termites (Reticulitermes flavipes); test: Termite soil incorporation assay; conditions: 100 ppm after 9 days
Experimental: (§2) Soil was prepared by adding stock solutions (active dissolved in acetone) to 100 g sandy loam soil to make 1, 10, and 100 ppm batches. Jars of soils were rolled on a jar roller to mix thoroughly and then allowed to vent over night with the acetone evaporating off.
Subterranean termite bioassays were conducted in 50×15 mm Petri dishes and were prepared with a layer of 1% agar (2 ml) and then 2 g of dry treated soil. A 1 cm^2 piece of filter paper, moistened with 1 drop of distilled water was added to each dish as a source of cellulose food. Each dish was then infested with 15 eastern subterranean termite workers, Reticulitermes flavipes. Five replicates were setup per treatment rate. Mortality was observed daily up to 7 days with moribund and dead termites removed at each reading.

[4] = system: Eastern Subterranean Termites (Reticulitérmes Flávipes); test: Activity against eastern subterranean termites via termite filter paper bait
Experimental: Toxicant treatments (0.1 and 0.3% test compound w/w) were applied to 4.25 cm (diam.) filter papers in acetone solution. Treatment levels (% test compound) were calculated on basis of a mean weight per filter paper of 106.5 mg. Treatment solutions were adjusted to provide the quantity of toxicant (mg) required per paper in […] of acetone. Acetone only was applied for untreated controls. Treated papers were vented to evaporate the acetone, moistened with 0.25 ml water, and placed in corresponding test arenas.
Termite bait bioassays were conducted in 100×15 mm Petri dishes with 1 teaspoon fine sand spread in a thin layer over the bottom of each dish. An additional 0.25 teaspoon sand was piled against the side of each dish. The sand was moistened with 2.7 ml water applied to the piled sand. Water was added to dishes as needed over the course of the bioassays to maintain high moisture content. Bioassays had one treated filter (on the sand) and 30 termite workers per test dish. Each treatment level was replicated in 3 test dishes. Test dishes were maintained at approximately 30° C. and 85% humidity for 14 days and observed daily for mortality.

[5] = system: Yellowfever Mosquito (Aedes aegypti); test: Yellowfever mosquito glass vial (glass contact) assay
Experimental: as §1

[6] = system: Acrobat Ant (Crematogaster sp.); test: Acrobat ant soil incorporation assay
Experimental: as §2
Ant bioassays were conducted in 100×20 mm Petri dishes and were prepared with a layer of 1% agar (7 ml) and then 12.75 g of dry treated soil. A cotton pellet (#2) soaked with a 10% sugar solution was added to each dish in a micro-weigh boat as a source of moisture and food. Each dish was then infested with 15 acrobat ant workers, Crematogaster sp. Three replicates were setup per treatment rate. Mortality was observed daily up to 7 days with moribund and dead ants removed at each reading.

[7] = system: Acrobat Ant (Crematogaster sp.); test: Acrobat ant glass vial (glass contact) assay
Experimental: as §1

[8] = system: Green Peach Aphid (Myzus Persicae); test: Green peach aphid, pepper plant leaf dip; conditions: foliar, 120 h, after 5 days, read-out: mortality in comparison with untreated controls
Experimental: (§3) The active compounds were formulated in 50:50 acetone:water and 100 ppm Kinetic™ surfactant.
Pepper plants in the 2nd leaf-pair stage (variety California Wonder) were infested with approximately 40 laboratory-reared aphids by placing infested leaf sections on top of the test plants. The leaf sections were removed after 24 hr. The leaves of the intact plants were dipped into gradient solutions of the test compound and allowed to dry. Test plants were maintained under fluorescent light (24 hour photoperiod) at about 25° C. and 20-40% relative humidity. Aphid mortality on the treated plants, relative to mortality on check plants, was determined after 5 days.

[9] = system: Silverleaf whitefly (Bemisia Argentifolii); test: Silverleaf whitefly, cotton cotyledon dip; conditions: 72 h, 3 days after treatment, read-out: mortality in comparison with untreated controls
Experimental: as §3
Selected cotton plants were grown to the cotyledon state (one plant per pot). The cotyledons were dipped into the test solution to provide complete coverage of the foliage and placed in a well-vented area to dry. Each pot with treated seedling was placed in a plastic cup and 10 to 12 whitefly adults (approximately 3-5 day old) were introduced. The insects were colleted using an aspirator and an 0.6 cm, non-toxic Tygon tubing connected to a barrier pipette tip. The tip, containing the collected insects, was then gently inserted into the soil containing the treated plant, allowing insects to crawl out of the tip to reach the foliage for feeding. The cups were covered with a re-usable screened lid (150 micron mesh polyester screen PeCap from Tetko Inc). Test plants were maintained in the holding room at about 25° C. and 20-40% relative humidity for 3 days avoiding direct exposure to the fluorescent light (24 hour photoperiod) to prevent trapping of heat inside the cup. Mortality was assessed 3 days after treatment of the plants.

[10] = system: Diamond Back Moth (plutella Xylostella); test: Activity against diamond back moth, cabbage leaf disk dip; conditions: foliar, after 72 h, read-out: mortality in comparison with untreated controls
Experimental: 13. Activity Against Diamond Back Moth (plutella Xylostella) The active compounds were formulated in 50:50 acetone:water and 0.1% (vol/vol) Alkamuls EL 620 surfactant. A 6 cm leaf disk of cabbage leaves was dipped in the test solution for 3 seconds and allowed to air dry in a Petri plate lined with moist filter paper. The leaf disk was inoculated with 10 third instar larvae and kept at 25-27° C. and 50-60% humidity for 3 days. Mortality was assessed after 72 h of treatment.

[11] = system: Cotton Aphid (Aphis Gossypil), mixed life stages; test: Cotton aphid, mixed life stages, cotton cotyledon dip; conditions: 120 h, after 5 days, read-out: mortality in comparison with untreated controls
From the text: The active compounds were formulated in 50:50 acetone:water and 100 ppm Kinetic® surfactant.
Cotton plants at the cotyledon stage were infested prior to treatment by placing a heavily infested leaf from the main aphid colony on top of each cotyledon. The aphids were allowed to transfer overnight and the host leaf was removed. The infested cotyledons were then dipped and agitated in the test solution for 3 seconds and allowed to dry in a fume hood. Test plants were maintained under fluorescent lighting in a 24-hr photoperiod at 25° C. and 20-40% relative humidity. Aphid mortality on the treated plants, relative to mortality on untreated check plants, was determined after 5 days.

[12] = system: Tobacco Budworm (Heliothis Virescens); test: Activity against tobacco budworm, eggs in microtiterplates; conditions: 144 h, eggs sprayed, 6 days
Experimental: (§4) The active compounds were formulated in 1:3 DMSO:water. 15 to 25 eggs were placed into microtiterplates filled with diet. The eggs were sprayed with 10 μl of the test solution, the plates were sealed with pierced foils and kept at 27-29° C. and 75-85% humidity under fluorescent light for 6 days. Mortality was assessed on the basis of the agility and of comparative feeding of the hatched larvae. Tests were replicated 2 times.

[13] = system: Boll Weevil (Anthonomus grandis); test: Activity against boll weevil, eggs in microtiterplates; conditions: eggs sprayed, 3 to 5 days
Experimental: The active compounds were formulated in 1:3 DMSO:water. 10 to 15 eggs were placed into microtiterplates filled with 2% agar-agar in water and 300 ppm formaline. The eggs were sprayed with 20 μl of the test solution, the plates were sealed with pierced foils and kept at 24-26° C. and 75-85% humidity with a day/night cycle for 3 to 5 days. Mortality was assessed on the basis of the remaining unhatched eggs or larvae on the agar surface and/or quantity and depth of the digging channels caused by the hatched larvae. Tests were replicated 2 times.

[14] = system: Cowpea Aphid (Aphis Craccivora); test: Activity against cowpea aphid, sprayed potted cowpea plants; conditions: population reduction recorded after 24, 72 and 120 hours, read-out: mortality in comparison with untreated controls
Experimental: The active compounds were formulated in 50:50 acetone:water. Potted cowpea plants colonized with 100-150 aphids of various stages were sprayed after the pest population has been recorded. Population reduction was recorded after 24, 72, and 120 hours.

[15] = system: Vetch Aphid (Megoura Viciae); test: Activity against vetch aphid, bean leaf disks in microtiterplates; conditions: foliar, 144 h, leaf disks sprayed, 6 days
Experimental: The active compounds were formulated in 1:3 DMSO:water. Bean leaf disks were placed into microtiterplates filled with 0.8% agar-agar and 2.5 ppm OPUS™. The leaf disks were sprayed with 2.5 μl of the test solution and 5 to 8 adult aphids were placed into the microtiterplates which were then closed and kept at 22-24° C. and 35-45% under fluorescent light for 6 days. Mortality was assessed on the basis of vital, reproduced aphids. Tests were replicated 2 times.

[16] = system: Southern Armyworm (Spodoptera Eridanid), 2nd-3rd instar larvae; test: Southern armyworm, lima bean foliage dip; conditions: foliar, 96 h, after 4 days, read-out: mortality in comparison with untreated controls
Experimental: The active compounds were formulated as a 10.000 ppm solution in a mixture of 35% acetone and water, which was diluted with water, if needed.
Sieva lima bean foliage, expanded to the first true leaves, were dipped and agitated in the test solution for 3 seconds and then allowed to dry in a fume hood. The treated plant was then placed in 25-cm plastic perforated zip enclosure bags, ten 2nd-instar larvae were added, and the bags sealed. After 4 days, observations were made of mortality, plant feeding, and of any interference with larval growth.

[17] = system: Mediterranean Fruitfly (Ceratitis Capifata); test: Activity against Mediterranean fruitfly, eggs in microtiterplates; conditions: 144 h, eggs sprayed, 6 days
Experimental: as §4, with “50” for “15”, “80” for “25”, “0.5% agar-agar and 14% diet in water.” for “diet.”, “5” for “10”, “agility” for “agility and of comparative feeding”

[18] = system: Colorado Potato Beetle (Leptinotarsa Decemlineata); test: Colorado potato beetle, potato leaf dip in Petri dishes; conditions: foliar, 120 h, 5 days after treatment, read-out: mortality in comparison with untreated controls
Experimental: Potato plants were utilized for bioassays. Excised plant leaves were dipped into 1:1 acetone/water dilutions of the active compounds. After the leaves had dried, they were individually placed onto water-moistened filter paper on the bottoms of Petri dishes. Each dish was infested with 5-7 larvae and covered with a lid. Each treatment dilution was replicated 4 times. Test dishes were held at approximately 27° C. and 60% humidity. Numbers of live and morbid larvae were assessed in each dish at 5 days after treatment application, and percent mortality was calculated.

[19] = system: 2-Spotted Spider Mite (Tetranychus Urticae, OP-Resistant Strain); test: 2-spotted spider mite, lima bean plant dip; conditions: 300 ppm; after 5 days
Experimental: as §3
Sieva lima bean plants with primary leaves expanded to 7-12 cm were infested by placing on each a small piece from an infested leaf (with about 100 mites) taken from the main colony. This was done at about 2 hours before treatment to allow the mites to move over to the test plant to lay eggs. The piece of leaf used to transfer the mites was removed. The newly-infested plants were dipped in the test solution and allowed to dry. The test plants were kept under fluorescent light (24 hour photoperiod) at about 25° C. and 20-40% relative humidity. After 5 days, one leaf was removed and mortality counts were made.

Question: With `O=S(=O)(NCc1ccnc2ccccc12)c1ccc(-c2ccc(Cl)cc2Cl)cc1` [I-1] as the molecule, how does the mortality ([1]; 10 ppm after 48 hours) read?
Answer: The mortality was 30%.

Question: What about the mortality ([2]; 1 ppm after 3 days) of the same molecule?
Answer: The mortality was 100%.

Question: And the mortality [3]?
Answer: Its mortality is 95%.

Question: And the mortality ([4]; 0.1% w/w after 7 days)?
Answer: Its mortality is 99%.

Question: What about the mortality ([5]; 10 ppm after 48 hours) of the same molecule?
Answer: Its mortality is 37%.

Question: What about the mortality ([6]; 100 ppm after 7 days) of the same molecule?
Answer: The mortality was 36%.

Question: What about the mortality ([7]; 100 ppm after 4 days) of the same molecule?
Answer: Its mortality is 7%.

Question: Which results are given for `O=S(=O)(NCc1ccnc2ccccc12)c1ccc(-c2cc(Cl)ccc2Cl)cc1` [I-8, 2′,5′-dichloro-biphenyl-4-sulfonicacid (quinoline-4-ylmethyl)-amide]?
Answer: mortality at 300 ppm [8]: ≥ 75%; mortality at 300 ppm [9]: ≥ 70%; mortality at 300 ppm [10]: ≥ 75%; mortality at 300 ppm [11]: ≥ 80%; mortality at 2500 ppm [12]: ≥ 75%; mortality at 2500 ppm [13]: ≥ 75%; mortality at 300 ppm [14]: ≥ 80%; mortality at 2500 ppm [15]: ≥ 75%; mortality at 300 ppm [16]: ≥ 80%; mortality at 2500 ppm [17]: ≥ 75%

Question: Which results are given for `O=S(=O)(NCc1ccnc2ccccc12)c1ccc(-c2ccc(C(F)(F)F)cc2C(F)(F)F)cc1` [I-10]?
Answer: mortality ([1]; 10 ppm after 24 hours): 80%; mortality ([2]; 10 ppm after 5 days): 52%; mortality [3]: 84%; mortality ([4]; 0.3% w/w after 14 days): 86%; mortality ([5]; 10 ppm after 24 hours): 100%; mortality ([6]; 100 ppm after 3 days): 100%; mortality ([7]; 100 ppm after 2 days): 86%

Question: Which results are given for `O=S(=O)(NCc1ccnc2c(Cl)cccc12)c1ccc(-c2ccc(C(F)(F)F)cc2C(F)(F)F)cc1` [I-22, 2′,4′-bis-trifluoromethyl-biphenyl-4-sulfonic acid (8-chloroquinoline-4-yl-methyl)-amide]?
Answer: mortality at 300 ppm [16]: ≥ 80%; mortality at 300 ppm [18]: ≥ 75%

Question: For `Cc1cc(C(F)(C(F)(F)F)C(F)(F)F)ccc1-c1ccc(S(=O)(=O)NCc2ccnc3ccccc23)cc1` [I-46], which “mortality in comparison with untreated controls” value [19] is on record?
Answer: Its value is “at least 70%”.

Question: For `O=S(=O)(NCc1ccnc2c(F)cccc12)c1ccc(Br)cc1` [II-5, 4-bromo-N-(8-fluoro-quinolin-4-ylmethyl)-benzenesulfonamide], which mortality at 2500 ppm [13] is on record?
Answer: The mortality at 2500 ppm was no less than 75%.
